Experimental data published in patent US4963580A, “Substituted 5-hydroxy-2,3-dihydrobenzothiophenes as inhibitors of leukotriene biosynthesis” (Merck & Co., Inc., priority 1989, dated 1990).

Columns and labels:
[1] = test system: production of leukotriene B4 (LTB4) in isolated human polymorphonuclear leukocytes (PMN); assay: inhibition of LTB4 production in isolated human polymorphonuclear leukocytes (Human PMN); type: cell-based; settings: Leukocyte, 5 min, LTB4 by RIA, A23187 10 μM, 37° C., read-out: Polymorphonuclear Leucocyte (PMN) Activity, Human PMN IC50
Method: (§1) The assay is conducted as follows:
A. Preparation of Human PMN. Human blood is obtained by antecubital venepuncture from consenting volunteers who denied having taken medication within the previous 7 days. The blood is immediately added to 10% (v/v) trisodium citrate (0.13 M) or 5% (v/v) sodium heparin (1000 IU/mL). PMNs are isolated from anticoagulated blood by dextran sedimentation and centrifugation through Ficoll Hypaque (specific gravity 1.077), essentially as described by Boyum. (Boyum, A., Scand. J. Clin. Lab. Invest. 1968, 21 (Supp 97), 77). Contaminating erthrocytes are removed by lysis following exposure to ammonium chloride (0.16 M) in Tris buffer (pH 7.65), and the PMNs resuspended at 5×10^5 cells/mL in HEPES (15 mM) buffered Hanks balanced salt solution containing Ca^2+ (1.4 mM) and Mg^2+ (0.7 mM), pH 7.4. Viability is assessed by Trypan blue exclusion and is typically greater than 98%.
(§2) C. Generation and Radiommumoassay of LTB4. PMNs (0.5 mL; 2.5×10^5 cells) are placed in plastic tubes and incubated (37° C., 2 min) with test compounds at the desired concentration or vehicle control (DMSO, final concentration 0.2%). The synthesis of LTB4 is initiated by the addition of calcium inophore A23187 (final concentration 10 μM) or vehicle on control samples and allowed to proceed for 5 minutes at 37° C. The reactions are then terminated by the addition of cold methanol (0.25 mL) and samples of the entire PMN reaction mixture are removed for radiommunoassay of LTB4.
(§3) Samples (50 μl ) of authentic LTB4 of known concentration in radiommunoassay buffer (RIA) buffer (potassium phosphate 1 mM; disodium EDTA 0.1 mM; Thimerosal 0.025 mM; gelatin 0.1%, pH 7.3) or PMN reaction mixture diluted 1:1 with RIA buffer are added to reaction tubes.
Thereafter [3H]-LTB4 (10 nCu in 100 μl RIA buffer) and LTB4 antiserum (100 μL of a 1:3000 dilution in RIA buffer) are added and the tubes vortexed. Reactants are allowed to equilibrate by incubation overnight at 4° C. To separate antibody-bound from free LTB4, aliquots (50 μL) of activated charcoal (3% activated charcoal in RIA buffer containing 0.25% Dextran T-70) were added, the tubes vortexed, and allowed to stand at room temperature for 10 minutes prior to centrifugation (1500×g; 10 min; 4° C). The supernatents containing antibody-bound LTB4 are decanted into vials and Aquasol 2 (4 mL) was added. Radioactivity is quantified by liquid scintillation spectrometry. […] The specificity of the antiserium and the sensitivity of the procedure have been described in detail elsewhere. […] The amount of LTB4 produced in test and control approx. 20ng/10^6cells) samples are then calculated. Inhibitory dose response curves are constructed using a four parameter algorithm and from these the IC50 values are determined.

[2] = test system: production of leukotriene B4 (LTB4) in isolated rat polymorphonuclear leukocytes (PMN); assay: inhibition of LTB4 production in isolated rat polymorphonuclear leukocytes (Rat PMN); type: cell-based, rat (male Sprague Dawley); settings: Leukocyte, 5 min, LTB4 by RIA, A23187 10 μM, 37° C., read-out: Polymorphonuclear Leucocyte (PMN) Activity, Rat PMN IC50
Method: as §1
B. Rat Peritoneal Polymorphonuclear leukocytes (PMN). Male Sprague Dawley rats were purchased from Taconic Farms, Germantown, NY. The animals were maintained on standard pellet diet and water ad lib. Elicited PMN were prepared from peritoneal exudates as follows: 8 ml of 12% sodium caseinate was injected intraperitoneally into male rats. After 18-20 hours, the rats were killed with CO2 and the peritoneal cavities were lavaged with Eagle's MEM (pH 7.7) without NaHCO3 but containing Earle's salts, L-glutamine, and 30 mM HEPES. The PMN were isolated by centrifugation, washed with MEM, filtered through lens paper to remove clumps, and adjusted to a concentration of 1×10^7 cells/ml.
as §2, §3
Thereafter [3H]-LTB4 (10 nCu in 100 μl RIA buffer) and LTB4 antiserum (100 μL of a 1:3000 dilution in RIA buffer) are added and the tubes vortexed. Reactants are allowed to equilibrate by incubation overnight at 4° C. To separate antibody-bound from free LTB4, aliquots (50 μL) of activated charcoal (3% activated charcoal in RIA buffer containing 0.25% Dextran T-70) were added, the tubes vortexed, and allowed to stand at room temperature for 10 minutes prior to centrifugation (1500×g; 10 min; 4° C). The supernatents containing antibody-bound LTB4 are decanted into vials and Aquasol 2 (4 mL) was added. Radioactivity is quantified by liquid scintillation spectrometry. […] The specificity of the antiserium and the sensitivity of the procedure have been described in detail elsewhere. (Rokach, J.; Hayes, E. C.; Griard, Y.; Lombardo. D. L.; Maycock, A. L.; Rosenthal, A. S.; Young, R. N.; Zamboni, R.; Zweerink, H. J. Prostaglandins Leukotrienes and Medicine 1984, 13, 21). The amount of LTB4 produced in test and control approx. 20ng/10^6cells) samples are then calculated. Inhibitory dose response curves are constructed using a four parameter algorithm and from these the IC50 values are determined.

[3] = test system: production of leukotriene B4 (LTB4) in polymorphonuclear leukocytes (PMN); assay: LTB4 inhibition in the above described in vitro test (PMN, species not stated); type: cell-based; settings: Leukocyte, standard compounds
[4] = test system: leukotriene biosynthesis in human polymorphonuclear leukocytes; settings: known inhibitors of leukotriene biosynthesis; cited from earlier work

CC(C)(C)c1cc2c(cc1O)CCS2 [R4 = H, R6 = --C4 H10, 6-t-butyl-2,3-dihydro-5-hydroxybenzothiophene]
IC50 [1]: 142 nM | IC50 [2]: 207 nM

C=CCc1cc2c(cc1O)CCS2 [R4 = H, R6 = --CH2 CH= CH2, 6-Allyl-5-hydroxy-2,3-dihydrobenzothiophene]
IC50 [1]: 319 nM | IC50 [2]: 190 nM

CC(Cc1ccc(O)c(O)c1)C(C)Cc1ccc(O)c(O)c1 (stereo not shown) [nordihydroguaiacetic acid, nordihydroguaiaretic acid]
IC50 [3]: 86 nM | activity in human polymorphonuclear leukocytes assay [4]: active in this assay

C=CCc1c(O)ccc2c1CCS2 [R4 = --CH2 CH= CH2, R6 = H, 4-(propen-3-yl)-5-hydroxy-2,3-dihydrobenzothiophene]
IC50 [1]: 2260 nM | IC50 [2]: 887 nM

O=C1CCN(c2ccccc2)N1 [phenidone]
IC50 [3]: 9250 nM | activity in human polymorphonuclear leukocytes assay [4]: active in this assay

Oc1ccc2c(c1)CCS2 [R4 = H, R6 = H, 5-Hydroxy-2,3-dihydrobenzothiophene]
IC50 [2]: 5230 nM

CCCc1cc2c(cc1O)CCS2 [R4 = H, R6 = --C3 H8, 6-propyl-2,3-dihydro-5-hydroxybenzothiophene]
IC50 [1]: 326 nM | IC50 [2]: 211 nM
